Reference: patent US20060229348A1, “Oxindole oxazolidinone as antibacterial agent” (priority 2005, published 2006)
≈ marks a conversion by molar mass, not a printed value.

Key:
[1] = system: S. pneumoniae (LRSA); assay: in vitro antibacterial activity (MIC), S. pneumoniae (LRSA); format: cell-based; settings: Streptococcus pneumoniae
Description: (§1) The in vitro antibacterial activity of the compound of the present invention may be assessed by following procedures recommended in (1) National Committee for Clinical Laboratory Standards (January 2003), Methods for dilution antimicrobial tests for bacteria that grow aerobically, Approved Standard (6th ed), M7-A6, NCCLS, Wayne, Pa.; (2) National Committee for Clinical Laboratory Standards (March 2001), Methods for antimicrobial susceptibility testing of anaerobic bacteria, Approved Standard (5th ed), M11-A4, NCCLS, Wayne, Pa.; (3) National Committee for Clinical Laboratory Standards (Jan. 2003), MIC testing supplemental tables, M100-S13 (for use with M7-A6), NCCLS, Wayne, Pa.; and (4) Murray P R, Baron E J, Jorgensen J H, et al. Manual of Clinical Microbiology (8th ed) Washington, D.C.: American Society for Microbiology Press, 2003. The antibacterial activity can be presented in the form of MIC value. The MIC value is the lowest concentration of drug, which prevented macroscopically visible growth under the conditions of the test.

[2] = system: S. aureus (LORSA); assay: in vitro antibacterial activity (MIC), S. aureus (LORSA); format: cell-based; settings: Staphylococcus aureus
Description: as §1

[3] = molecular target: T1, MAO-B (Homo sapiens, UniProt P27338); assay: monoamine oxidase inhibition, MAO-B; format: biochemical; settings: substrate at Km 43 μM; MAO-B 0.008 mg/mL
T1 sequence (P27338 1-520): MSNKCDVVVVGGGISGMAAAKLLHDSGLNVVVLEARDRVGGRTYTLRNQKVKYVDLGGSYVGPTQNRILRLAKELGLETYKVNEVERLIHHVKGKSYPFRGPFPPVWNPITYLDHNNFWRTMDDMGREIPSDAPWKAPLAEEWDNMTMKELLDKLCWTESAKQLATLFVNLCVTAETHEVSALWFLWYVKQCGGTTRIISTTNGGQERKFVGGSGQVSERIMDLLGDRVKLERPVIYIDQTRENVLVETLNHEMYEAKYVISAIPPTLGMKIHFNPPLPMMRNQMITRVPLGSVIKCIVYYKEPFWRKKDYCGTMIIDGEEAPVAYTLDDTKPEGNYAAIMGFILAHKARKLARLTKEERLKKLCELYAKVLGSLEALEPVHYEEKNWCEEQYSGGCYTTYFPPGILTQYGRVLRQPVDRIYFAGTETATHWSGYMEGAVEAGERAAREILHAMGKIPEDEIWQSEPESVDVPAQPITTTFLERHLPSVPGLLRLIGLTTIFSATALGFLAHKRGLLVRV
Method: (§2) MAO-A and B inhibition were analyzed by measuring the inhibition of conversion of an MAO substrate, 1-methyl-4-(1-methyl-2-pyrryl)-1,2,3,6-tetrahydropyridine, to its dihydropyridinium metabolite (λ=421 nm). The substrate concentration was equal to the Km (64 μM for MAO-A and 43 μM for MAO-B). The MAO-A concentration was 0.01 mg/mL, and the MAO-B concentration was 0.008 mg/mL. Each inhibitor was tested at seven concentrations. Percent inhibition at each concentration was established relative to the uninhibited control rate, and the IC50 and Ki values were calculated.

[4] = molecular target: T2, MAO-A (Homo sapiens, UniProt P21397); assay: monoamine oxidase inhibition, MAO-A; format: biochemical; settings: substrate at Km 64 μM; MAO-A 0.01 mg/mL
T2 sequence (P21397 1-527): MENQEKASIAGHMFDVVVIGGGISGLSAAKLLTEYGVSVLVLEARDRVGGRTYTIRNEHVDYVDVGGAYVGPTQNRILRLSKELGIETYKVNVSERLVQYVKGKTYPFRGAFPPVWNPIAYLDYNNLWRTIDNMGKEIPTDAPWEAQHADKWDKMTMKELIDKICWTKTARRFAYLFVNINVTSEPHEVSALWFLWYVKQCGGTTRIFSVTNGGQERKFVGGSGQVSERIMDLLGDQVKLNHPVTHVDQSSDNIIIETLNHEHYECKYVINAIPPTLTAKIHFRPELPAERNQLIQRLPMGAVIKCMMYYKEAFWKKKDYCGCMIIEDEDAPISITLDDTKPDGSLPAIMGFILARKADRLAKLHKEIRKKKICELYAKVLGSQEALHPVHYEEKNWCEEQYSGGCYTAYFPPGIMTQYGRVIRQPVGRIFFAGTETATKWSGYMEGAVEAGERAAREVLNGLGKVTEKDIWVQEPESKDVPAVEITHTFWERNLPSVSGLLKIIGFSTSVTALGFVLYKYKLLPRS
Method: as §2

[5] = system: E. faecalis (VREF); assay: in vitro antibacterial activity (MIC), E. faecalis (VREF); format: cell-based; settings: Enterococcus faecalis
Description: as §1

[6] = system: E. faecium (VREF); assay: in vitro antibacterial activity (MIC), E. faecium (VREF); format: cell-based; settings: Enterococcus faecium
Description: as §1

[7] = system: S. pneumoniae SV1 SP-3; assay: in vitro antibacterial activity, S. pneumoniae SV1 SP-3; format: cell-based; settings: Streptococcus pneumoniae, SV1SP3; strain SV1 SP-3
Description: as §1

[8] = system: S. aureus UC-76 SA-1; assay: in vitro antibacterial activity, S. aureus UC-76 SA-1; format: cell-based; settings: Staphylococcus aureus, UC76; strain UC-76 SA-1
Description: as §1

[9] = system: E. faecalis MGH-2 EF 1-1; assay: in vitro antibacterial activity, E. faecalis MGH-2 EF 1-1; format: cell-based; settings: Enterococcus faecalis, MGH2EF11; strain MGH-2 EF 1-1
Description: as §1

| SMILES | MIC90 [1] [µg/mL] | MIC90 [2] [µg/mL] | Ki [3] [µM] | Ki [4] [µM] | MIC90 [5] [µg/mL] | MIC90 [6] [µg/mL] | MIC90 [7] [µg/mL] | MIC90 [8] [µg/mL] | MIC90 [9] [µg/mL] |
| --- | --- | --- | --- | --- | --- | --- | --- | --- | --- |
| COC(=O)NC[C@H]1CN(c2ccc3c(c2)CC(=O)N3C)C(=O)O1 [Example 2, (S)-[3-(1-methyl-2-oxo-2,3-dihydro-1H-indol-5-yl)-2-oxo-oxazolidin-5-ylmethyl]-carbamic acid methyl ester] | – | – | – | – | – | – | 1 (≈ 3.13 µM) | 4 (≈ 12.5 µM) | 2 (≈ 6.26 µM) |
| COC(=O)NC[C@H]1CN(c2ccc3c(c2)CC(=O)N3CCF)C(=O)O1 [Example 3, (S)-{3-[1-(2-fluoro-ethyl)-2-oxo-2,3-dihydro-1H-indol-5-yl]-2-oxo-oxazolidin-5-ylmethyl}-carbamic acid methyl ester] | – | – | – | – | – | – | 2 (≈ 5.69 µM) | 4 (≈ 11.4 µM) | 2 (≈ 5.69 µM) |
| COC(=O)NC[C@H]1CN(c2ccc3c(c2)CC(=O)N3C(C)C)C(=O)O1 [Example 4, (S)-[3-(1-isopropyl-2-oxo-2,3-dihydro-1H-indol-5-yl)-2-oxo-oxazolidin-5-ylmethyl]-carbamic acid methyl ester] | – | – | – | – | – | – | 4 (≈ 11.5 µM) | 8 (≈ 23 µM) | 8 (≈ 23 µM) |
| COC(=O)NC[C@H]1CN(c2ccc3c(c2)CC(=O)N3C(C)CF)C(=O)O1 (stereo partly drawn) [Example 8, (S)-{3-[1-(2-fluoro-1-methyl-ethyl)-2-oxo-2,3-dihydro-1H-indol-5-yl]-2-oxo-oxazolidin-5-ylmethyl}-carbamic acid methyl ester] | – | – | – | – | – | – | 4 (≈ 10.9 µM) | 4 (≈ 10.9 µM) | 4 (≈ 10.9 µM) |

Continued, values first:

| MIC90 [1] [µg/mL] | MIC90 [2] [µg/mL] | Ki [3] [µM] | Ki [4] [µM] | MIC90 [5] [µg/mL] | MIC90 [6] [µg/mL] | MIC90 [7] [µg/mL] | MIC90 [8] [µg/mL] | MIC90 [9] [µg/mL] | SMILES |
| --- | --- | --- | --- | --- | --- | --- | --- | --- | --- |
| 2 (≈ 6 µM) | 4 (≈ 12 µM) | 57.4 | 880 | 4 (≈ 12 µM) | 4 (≈ 12 µM) | – | – | – | CCN1C(=O)Cc2cc(N3C[C@H](CNC(=O)OC)OC3=O)ccc21 [Compound No. 1, (5S)-[3-(1-ethyl-2-oxo-2,3-dihydro-1H-indol-5-yl)-2-oxo-oxazolidin-5-ylmethyl]-carbamic acid methyl ester] |
| – | – | – | – | – | – | 4 (≈ 11.5 µM) | 8 (≈ 23 µM) | 4 (≈ 11.5 µM) | CCCN1C(=O)Cc2cc(N3C[C@H](CNC(=O)OC)OC3=O)ccc21 [Example 5, (S)-[2-oxo-3-(2-oxo-1-propyl-2,3-dihydro-1H-indol-5-yl)-oxazolidin-5-ylmethyl]-carbamic acid methyl ester] |
| – | – | – | – | – | – | 4 (≈ 11.6 µM) | 4 (≈ 11.6 µM) | 4 (≈ 11.6 µM) | COC(=O)NC[C@H]1CN(c2ccc3c(c2)CC(=O)N3C2CC2)C(=O)O1 [Example 6, (S)-[3-(1-cyclopropyl-2-oxo-2,3-dihydro-1H-indol-5-yl)-2-oxo-oxazolidin-5-ylmethyl]-carbamic acid methyl ester] |
| – | – | – | – | – | – | 4 (≈ 11.1 µM) | 8 (≈ 22.3 µM) | 8 (≈ 22.3 µM) | COC(=O)NC[C@H]1CN(c2ccc3c(c2)CC(=O)N3CC2CC2)C(=O)O1 [Example 7, (S)-[3-(1-cyclopropylmethyl-2-oxo-2,3-dihydro-1H-indol-5-yl)-2-oxo-oxazolidin-5-ylmethyl]-carbamic acid methyl ester] |
